The source of these data is article PMC12457114, “Comparison of the pharmacokinetic profiles of three triterpenoids after oral administration of a cucurbitacin tablet and nanosuspension by UHPLC-MS/MS” (Frontiers in Pharmacology, 2025).

The nature of data set [1]: Pharmacokinetic study in rats after oral administration of CUT and MP-NPs, plasma by UHPLC-MS/MS. Conditions: male, Sprague Dawley, in vivo, n = 6, mean ± SD. On the procedure: An Agilent 6430 triple quadrupole mass spectrometer with an ESI source interface (Agilent Technologies, Santa Clara, CA, United States) was used in conjunction with an Agilent 1290 UHPLC system (Agilent Technologies). A Waters ACQUITY HSS T3 Column (1.8 μm, 2.1 × 100 mm) (Waters, Manchester, UK) was also used for the separations. Gradient elution was performed using water (A) and methanol (B) as mobile phases. The gradient elution procedure was used for 0.0–1.0 min, 80%–80% B; 1.0–1.5 min, 80%–90% B; 1.5–3.0 min, 90%–90% B; 3.0–3.2 min, 90%–80% B; and 3.2–4 min, 80%–80% B. The analytical temperature was 35 °C, and the flow rate was 0.3 mL/min. An injection of 5 μL volume was administered, after which the needle was washed. Positive ion-mode analysis was performed for the samples. The capillary voltage was set to 4500 V, source temperature to 100 °C, and the desolvation temperature to 350 °C ([Wang et al., 2014]). High-purity nitrogen was used as the nebulizing gas, and nitrogen was used as the drying gas at a flow rate of 11 L/min. The Agilent Mass Hunter workstation was used to gather the experimental data ([Wang Z et al., 2023]).
A total of 12 male Sprague Dawley (SD) rats (weight: 220 ± 20 g) were provided by the Animal Experiment Center of Heilongjiang University of Traditional Chinese Medicine (Production license number: SYXK (Hei) 2021-010). The Laboratory Animal Ethics Committee of Heilongjiang University of Traditional Chinese Medicine approved the study (Approval No.: 2024053114).
Animals were randomly assigned to the following two experimental groups (n = 6 per group): CUT and MP-NPs. Treatments were administered once daily for seven consecutive days, with the plasma sampling performed at predetermined time points after administration. Dosage was calculated based on human-equivalent doses converted to rat pharmacokinetic parameters using interspecies scaling factors. The human-rat dose conversion procedure was used to determine the dose of CUT per rat to be 0.03 g. The recommended daily dosage for humans is 6 tablets. The dose of MP-NPs per rat was determined to be 0.06 g per rat using the human-rat dose conversion formula, whereas the dose of P. Melo for human usage was 3 g, with reference to the Pharmacopoeia of the People’s Republic of China 2025.
At 0.083, 0.25, 0.50, 1, 1.5, 2, 2.5, 3, 4, 6, 8, 12, and 24 h following oral administration of CUT and MP-NPs, 0.25 mL of plasma samples were sampled by rapidly collecting and centrifuging at 4 °C, followed by freezing at −20 °C for further analysis ([Yu et al., 2023]).
Blank plasma sample (100 μL) was vortexed for 60 s after adding 100 μL of IS. To guarantee complete extraction, 3 mL of dichloromethane was then added to each sample, followed by vortexing for 120 s. Subsequently, the samples were centrifuged for 10 min at 4 °C and 3,500 rpm. At 40 °C, the […] organic phase was carefully moved into a sterile tube, dried off with a mild stream of nitrogen gas, and then reconstituted in 100 μL of the original mobile phase. Following a 120 s vortex, the extracts were filtered through a 0.22 μm Millipore filter before subjecting them to quantitative analyses by injecting 5 μL of them into the UHPLC-MS/MS apparatus.
The established UHPLC-MS/MS method was applied to simultaneously measure the plasma concentrations of the three analytes in rats following dose administration. Pharmacokinetic parameters have attracted attention in exploring drug absorption and distribution. These parameters include T 1/2, C max, T max, and AUC (Table 6). The pharmacokinetics of SD rats following oral administration of CUT and MP-NPs were investigated through UHPLC-MS/MS. The plasma concentrations of the three analytes were calculated. […] The MP-NPs group reached C max more rapidly than the CUT group.

A short description of data set [2]: Stability of the analytes in rat plasma under different storage conditions. The format is in vitro ADME. The note with it: for Stability (RE%) Post-preparative / Stability (RE%) Short-term / Stability (RE%) Long-term / Stability (RE%) Freeze-thaw: rat plasma, n = 6; for Stability (RE%) Post-preparative / Stability in rat plasma (in words): 12 h at 4 °C post-sample preparation; for Stability (RE%) Short-term: ambient temperature (25 °C) for 4 h; for Stability (RE%) Long-term / Stability in rat plasma (in words): storage at −20 °C; for Stability (RE%) Freeze-thaw: three freeze-thaw cycles (−20 °C/room temperature); for Stability in rat plasma (in words): 25 °C for 4 h, three freeze-thaw cycles. From the text: Table 5 outlines the stability of LQC, MQC, and HQC in the rat plasma under different storage conditions.

The mark [3] stands for this setting: CUT group, oral cucurbitacin tablet 0.03 g per rat.
The mark [4] stands for this setting: MP-NPs group, oral MP-NPs(PVP-K30) 0.06 g per rat.
The mark [5] stands for this setting: HQC (spiked 300.2 CuB, 600.2 CuD, 300.8 CuE ng/mL).
Where [6] appears, read: LQC (spiked 5.272 CuB, 25.30 CuD, 5.257 CuE ng/mL).
The mark [7] stands for this setting: MQC (spiked 150.1 CuB, 300.1 CuD, 150.4 CuE ng/mL).

Usually AUC(0-inf) stands for the area under the concentration-time curve extrapolated to infinity. A high value points to more exposure. By AUC(0-t) is commonly meant exposure summed from dosing to a finite time, without extrapolation to infinity. Read a high AUC(0-t) as more exposure. As a reminder, the Cmax is the maximum level reached in the sampled fluid or tissue. By Tmax is commonly meant the time at which the peak concentration occurs. One may read the half-life as the time needed for the level to fall by half in the phase considered. A higher half-life goes with slow loss.

On to `CC(C)(O)/C=C/C(=O)[C@](C)(O)[C@H]1[C@H](O)C[C@@]2(C)[C@@H]3CC=C4[C@@H](C[C@H](O)C(=O)C4(C)C)[C@]3(C)C(=O)C[C@]12C` [CuD, cucurbitacin D], for which, in data set [1] (setting [3]), the AUC(0-inf) worked out at 1160 ng·h/mL, the AUC(0-t) was 1030 ng·h/mL, the Cmax was 339 ± 24.4 ng/mL and the Tmax came out at 1.83 ± 0.683 h. The compound also showed a half-life in data set [1] (setting [3]) of 5.33 ± 0.991 h. In addition, in data set [1] (setting [4]), the AUC(0-inf) came out at 1480 ng·h/mL, the AUC(0-t) stood at 1260 ng·h/mL, the concentration peaked (Cmax) at 365 ± 69.9 ng/mL and the Tmax amounted to 1.75 ± 0.61 h. The same compound had a half-life in data set [1] (setting [4]) of 6.97 ± 2.92 h. In data set [2] (setting [5]), the “Stability (RE%) Post-preparative” value is 7.032%, the “Stability (RE%) Short-term” value is −5.861%, the “Stability (RE%) Long-term” value is recorded as −2.272% and the “Stability (RE%) Freeze-thaw” value is −7.765%. Also, in data set [2] (setting [6]), the “Stability (RE%) Post-preparative” value is recorded as −3.854%, the “Stability (RE%) Short-term” value stood at 4.262%, the “Stability (RE%) Long-term” value amounted to 5.336% and the “Stability (RE%) Freeze-thaw” value is −3.242%. Further, in data set [2] (setting [7]), the “Stability (RE%) Post-preparative” value is −8.805%, the “Stability (RE%) Short-term” value is reported as −4.154%, the “Stability (RE%) Long-term” value is recorded as −5.533% and the “Stability (RE%) Freeze-thaw” value was −8.420%. Also, the “Stability in rat plasma (in words)” value in data set [2] is on record as “remained stable”.

As for `CC(=O)OC(C)(C)/C=C/C(=O)[C@](C)(O)[C@H]1[C@H](O)C[C@@]2(C)[C@@H]3CC=C4[C@@H](C=C(O)C(=O)C4(C)C)[C@]3(C)C(=O)C[C@]12C` [CuE, cucurbitacin E], in data set [1] (setting [3]), the AUC(0-inf) is 682 ± 126 ng·h/mL, the exposure AUC(0-t) was found to be 603 ± 125 ng·h/mL, the peak level (Cmax) was 166 ± 13.8 ng/mL and the time to peak (Tmax) came to 2.25 ± 0.521 h. Besides, the half-life in data set [1] (setting [3]) is 5.99 ± 1.23 h. Further, in data set [1] (setting [4]), the AUC(0-inf) turned out to be 973 ± 269 ng·h/mL, the AUC(0-t) is 752 ± 150 ng·h/mL, the highest level (Cmax) was 236 ± 31.9 ng/mL and the Tmax stood at 1.67 ± 0.612 h. Moreover, in data set [1] (setting [4]), the half-life was 7.05 ± 2.7 h. In data set [2] (setting [5]), the “Stability (RE%) Post-preparative” value is −8.572%, the “Stability (RE%) Short-term” value is reported as −3.143%, the “Stability (RE%) Long-term” value is recorded as −3.035% and the “Stability (RE%) Freeze-thaw” value is recorded as −1.361%. In addition, in data set [2] (setting [6]), the “Stability (RE%) Post-preparative” value is 6.711%, the “Stability (RE%) Short-term” value worked out at 6.050%, the “Stability (RE%) Long-term” value amounted to 8.213% and the “Stability (RE%) Freeze-thaw” value turned out to be 7.947%. Moreover, in data set [2] (setting [7]), the “Stability (RE%) Post-preparative” value was −2.053%, the “Stability (RE%) Short-term” value is recorded as −4.192%, the “Stability (RE%) Long-term” value is 5.814% and the “Stability (RE%) Freeze-thaw” value is reported as 1.424%. In data set [2], the “Stability in rat plasma (in words)” value was “remained stable”.
